Read-outs that look alike come from different tables or passages of the source.

One test addresses Mnk1 (Homo sapiens (Human), UniProt Q9BUB5). Kind of test: Mnk1 kinase inhibition, ADP-Glo ADP monitoring assay. In kind it is biochemical. To be noted: for IC50: read-out: Mnk1 IC50.
For the next test, the target named is Mnk2 (Homo sapiens (Human), UniProt Q9HBH9). In words: Mnk2 kinase inhibition, ADP-Glo ADP monitoring assay. In kind it is biochemical. To be noted: ADP-Glo kinase assay; for IC50: read-out: Mnk2 IC50.
Sequence of Mnk2 (Q9HBH9 whole entry): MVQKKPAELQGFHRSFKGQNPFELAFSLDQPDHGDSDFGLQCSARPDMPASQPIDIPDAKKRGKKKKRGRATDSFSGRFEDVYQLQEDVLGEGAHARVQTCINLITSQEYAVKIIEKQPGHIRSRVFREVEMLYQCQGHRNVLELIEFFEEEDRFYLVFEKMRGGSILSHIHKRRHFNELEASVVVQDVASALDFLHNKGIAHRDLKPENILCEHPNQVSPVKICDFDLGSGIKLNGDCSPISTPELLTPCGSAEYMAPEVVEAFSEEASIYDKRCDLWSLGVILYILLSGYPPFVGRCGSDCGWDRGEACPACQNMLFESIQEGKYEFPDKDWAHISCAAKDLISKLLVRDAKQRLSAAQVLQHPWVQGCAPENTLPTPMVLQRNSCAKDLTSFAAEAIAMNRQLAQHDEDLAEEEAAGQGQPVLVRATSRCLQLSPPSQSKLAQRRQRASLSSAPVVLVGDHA

Sequence of Mnk1 (Q9BUB5 whole entry): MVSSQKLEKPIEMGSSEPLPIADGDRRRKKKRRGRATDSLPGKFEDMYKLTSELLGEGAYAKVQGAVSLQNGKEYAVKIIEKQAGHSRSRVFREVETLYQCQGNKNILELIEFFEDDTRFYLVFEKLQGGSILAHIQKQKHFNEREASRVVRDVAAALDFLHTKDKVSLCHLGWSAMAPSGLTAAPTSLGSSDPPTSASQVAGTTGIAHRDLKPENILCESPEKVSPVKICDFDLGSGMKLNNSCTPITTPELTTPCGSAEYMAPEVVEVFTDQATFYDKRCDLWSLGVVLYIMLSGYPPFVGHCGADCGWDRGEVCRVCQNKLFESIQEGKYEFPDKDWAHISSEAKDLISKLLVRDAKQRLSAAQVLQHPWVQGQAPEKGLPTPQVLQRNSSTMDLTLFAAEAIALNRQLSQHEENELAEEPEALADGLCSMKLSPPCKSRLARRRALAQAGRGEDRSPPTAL
Experimental for Mnk1: (§1) The synthesized compounds then were tested for inhibition of the kinase activity (IC50) of Mnk1 and/or Mnk2 using the ADP monitoring assay for kinases described in Zegzouti, H.; Zdanovskaia, M.; Hsiao, K.; Goueli, S. A., ADP-Glo: A Bioluminescent and homogeneous ADP monitoring assay for kinases.
Experimental for Mnk2: as §1

For the molecule `COCCNc1nccc(-n2cnc3ccccc32)n1` [NUCC-0176342], the values for the IC50 on Mnk1 and at Mnk2 were 1600 nM and 200 nM, respectively.
The corresponding values for `O=C1CCCN1CCCNc1nccc(-n2cnc3ccccc32)n1` [NUCC-0176344] are 7200 nM and 780 nM.
In the case of `O=C1CCCN1CCCNc1ccnc(-n2cnc3ccccc32)n1` [NUCC-0176345], the IC50 at Mnk1 was found to be 10000 nM; on Mnk2, 2600 nM.
In the same order, the values of `c1ccc2c(c1)cnn2-c1ccnc(NCCc2ccncc2)n1` [NUCC-0176346] are 5400 nM and 4700 nM.
The corresponding values for `c1ccc2c(c1)cnn2-c1nccc(NCCc2ccncc2)n1` [NUCC-0176347] are 8100 nM and 5600 nM.
In the same order, the values of `CC(O)CNc1ccnc(-n2cnc3ccccc32)n1` (stereo not drawn) [NUCC-0176348] are 710 nM and 130 nM.
As for `Nc1ccnc(-n2cnc3ccccc32)n1` [NUCC-0176349], the figures for the IC50 at Mnk1 and at Mnk2 were 4100 nM and 1400 nM, respectively.
For the molecule `O=c1c2ccccc2nnn1-c1ccnc(NCCc2ccncc2)n1` [NUCC-0176350], at Mnk1, the “Mnk1 IC50” value is “no activity”. Further, at Mnk2, the “Mnk2 IC50” value is listed as “no activity”.
Consider `O=C(Nc1ccccc1)Nc1nccc(-n2cnc3ccccc32)n1` [NUCC-0176351], for which, at Mnk1, the “Mnk1 IC50” value is reported as “no activity”. For the same molecule, at Mnk2, the “Mnk2 IC50” value is reported as “no activity”.
`OCCNc1nccc(-n2cnc3ccccc32)n1` [NUCC-0176352]: the IC50 on Mnk1 worked out at 650 nM; on Mnk2 it was 170 nM.
`O=c1oc2ccccc2n1-c1ccnc(NCCc2ccncc2)n1` [NUCC-0176353]: the IC50 at Mnk1 amounted to 9500 nM; on Mnk2, 6800 nM.
The corresponding values for `S=c1oc2ccccc2n1-c1ccnc(NCCc2ccncc2)n1` [NUCC-0176354] are 10000 nM and 4900 nM.
In the same order, the values of `Clc1cnc(NCCc2c[nH]c3ccccc23)nc1-n1cnc2ccccc21` [NUCC-0176355] are 13000 nM and 2400 nM.
The corresponding values for `COC(=O)CNc1ncc(Cl)c(-n2cnc3ccccc32)n1` [NUCC-0176356] are 11000 nM and 1400 nM.
Consider `Clc1cnc(NCCc2cccnc2)nc1-n1cnc2ccccc21` [NUCC-0176357], for which the results for the IC50 at Mnk1 and on Mnk2 were 2300 nM and 250 nM, respectively.
Turning to `OCCNc1ncc(Cl)c(-n2cnc3ccccc32)n1` [NUCC-0176358], the IC50 turned out to be 450 nM at Mnk1 and 130 nM on Mnk2.
As to `NC(=O)CNc1ncc(Cl)c(-n2cnc3ccccc32)n1` [NUCC-0176359], the IC50 on Mnk1 is 1500 nM; on Mnk2, 320 nM.
The corresponding values for `Clc1cnc(NCc2cccnc2)nc1-n1cnc2ccccc21` [NUCC-0176360] are 4500 nM and 1000 nM.
With `O=C(O)CNc1ncc(Cl)c(-n2cnc3ccccc32)n1` [NUCC-0176361], the “Mnk1 IC50” value at Mnk1 is recorded as “no activity”. The “Mnk2 IC50” value at Mnk2 is on record as “no activity”.
With `O=C(Nc1cc(C(F)(F)F)cc(C(F)(F)F)c1)Nc1nccc(-n2cnc3ccccc32)n1` [NUCC-0176362], the “Mnk1 IC50” value on Mnk1 was “no activity”. The “Mnk2 IC50” value on Mnk2 was “no activity”.
For `FC(F)(F)c1cc(NC(=S)Nc2nccc(-n3cnc4ccccc43)n2)cc(C(F)(F)F)c1` [NUCC-0176363], the “Mnk1 IC50” value at Mnk1 is listed as “no activity”. In addition, on Mnk2, the “Mnk2 IC50” value was “no activity”.
As for `O=[N+]([O-])c1ccc(NCCNc2nccc(-n3cnc4ccccc43)n2)nc1` [NUCC-0176365], the concentration for half-maximal inhibition (IC50) at Mnk1 is 7400 nM; at Mnk2 it was 2100 nM.
The corresponding values for `O=[N+]([O-])c1ccc(NCCNc2ccnc(-n3cnc4ccccc43)n2)nc1` [NUCC-0176366] are 8500 nM and 2500 nM.
In the same order, the values of `O=C1NCCCCC1Nc1nccc(-n2cnc3ccccc32)n1` (stereo not drawn) [NUCC-0176367] are 2600 nM and 500 nM.
In the same order, the values of `O=C1NCCCCC1Nc1ccnc(-n2cnc3ccccc32)n1` (stereo not drawn) [NUCC-0176368] are 11000 nM and 5200 nM.
For `OC1Cc2ccccc2C1Nc1nccc(-n2cnc3ccccc32)n1` (stereo not drawn) [NUCC-0176369], at Mnk1, the “Mnk1 IC50” value was “no activity”. Also, the “Mnk2 IC50” value on Mnk2 is reported as “no activity”.
On to `CCNC(=O)Nc1nccc(-n2cnc3ccccc32)n1` [NUCC-0196222], for which the IC50 on Mnk1 (unit inferred) is over 10000 nM; on Mnk2 (unit inferred), 2200 nM.
As for `Nc1cc(-n2cnc3ccccc32)nc(NCc2cccnc2)n1` [NUCC-0196223], the concentration for half-maximal inhibition (IC50) at Mnk1 (unit inferred) was over 10000 nM; on Mnk2 (unit inferred), 1800 nM.
The corresponding values for `Brc1cnc(NCCc2ccncc2)nc1-n1cnc2ccccc21` [NUCC-0196228] are 550 nM and 69 nM.
In the same order, the values of `COC(=O)c1cc(-n2cnc3ccccc32)nc(NCCc2ccncc2)n1` [NUCC-0196230] are over 10000 nM and over 10000 nM.
The corresponding values for `Nc1cnc(NCCc2ccncc2)nc1-n1cnc2ccccc21` [NUCC-0196231] are over 10000 nM and over 10000 nM.
`O=C(NC1CC1)c1cc(-n2cnc3ccccc32)nc(NCCc2ccncc2)n1` [NUCC-0196234]: the IC50 at Mnk1 (unit inferred) was over 10000 nM; at Mnk2 (unit inferred), 5400 nM.
In the same order, the values of `c1cc(NCCc2ccncc2)nc(-n2cnc3ccccc32)c1` [NUCC-0196235] are 100 nM and 10 nM.
In the same order, the values of `O=C(O)c1cc(-n2cnc3ccccc32)nc(NCCc2ccncc2)n1` [NUCC-0196239] are over 10000 nM and 6900 nM.
In the same order, the values of `N#Cc1cnc(NCCc2ccncc2)nc1-n1cncn1` [NUCC-0196250] are over 10000 nM and over 10000 nM.
Turning to `c1ccc(C2CC2Nc2nccc(-n3cnc4ccccc43)n2)cc1` (stereo not drawn) [NUCC-0196255], the IC50 is over 10000 nM at Mnk1 (unit inferred) and 920 nM on Mnk2 (unit inferred).
As to `O[C@@H](c1ccccc1)[C@H](Nc1nccc(-n2cnc3ccccc32)n1)c1ccccc1` [NUCC-0196256], the IC50 amounted to 7300 nM on Mnk1 (unit inferred) and 3800 nM on Mnk2 (unit inferred).
In the same order, the values of `O[C@H](c1ccccc1)[C@@H](Nc1nccc(-n2cnc3ccccc32)n1)c1ccccc1` [NUCC-0196257] are 1300 nM and 310 nM.
Consider `O[C@@H](c1ccccc1)[C@H](Nc1ccnc(-n2cnc3ccccc32)n1)c1ccccc1` [NUCC-0196258], for which the IC50 was over 10000 nM on Mnk1 (unit inferred) and 7000 nM on Mnk2 (unit inferred).
In the same order, the values of `O[C@H](c1ccccc1)[C@@H](Nc1ccnc(-n2cnc3ccccc32)n1)c1ccccc1` [NUCC-0196259] are 5600 nM and 320 nM.
The corresponding values for `c1ccc2c(c1)ncn2-c1ccnc(NCCc2c[nH]c3ccccc23)n1` [NUCC-0196260] are 500 nM and 90 nM.
The corresponding values for `c1ccc2c(c1)ncn2-c1nccc(NCCc2c[nH]c3ccccc23)n1` [NUCC-0196261] are 920 nM and 110 nM.
`c1ccc2c(c1)ncn2-c1ccnc(NCCc2ccncc2)c1` [NUCC-0196262]: the 50% inhibitory concentration (IC50) on Mnk1 (unit inferred) was found to be 1300 nM; on Mnk2 (unit inferred), 1200 nM.
In the same order, the values of `Oc1cnc(NCCc2ccncc2)nc1-n1cnc2ccccc21` [NUCC-0196263] are over 10000 nM and over 10000 nM.
In the same order, the values of `N#Cc1cnc(NCCc2ccncc2)nc1-n1cnc(-c2ccccc2)c1` [NUCC-0196264] are 96 nM and 57 nM.

As usually defined, the IC50 is the point on the concentration scale where inhibition reaches its midpoint.

Values taken from US10851082B2, “Substituted aromatic n-heterocyclic compounds as inhibitors of mitogen-activated protein kinase interacting kinase 1 (MNK1) and 2 (MNK2)” (Northwestern University, priority 2015, dated 2020).
